Measured values taken from publication PMC11050599, “Novel Tetracyclic Azaphenothiazines with the Quinoline Ring as New Anticancer and Antibacterial Derivatives of Chlorpromazine” (International Journal of Molecular Sciences, 2024).
≈ marks a conversion by molar mass, not a printed value. Like-named read-outs stand apart in the source and are kept apart here.

Experiments:
S. aureus ATCC 25923 = assay: MIC broth microdilution; type: cell-based; conditions: 19 h, 35 °C; for MIC: Staphylococcus aureus, ATCC25923, read-out: MIC S. aureus ATCC 25923
Excerpt: (§1) To evaluate the antibacterial effectiveness of chloroquinobenzothiazine derivatives, various bacterial strains from international microbe collections such as the American Type Culture Collection (ATCC) and the National Collection of Type Culture (NCTC) were examined, alongside a panel of clinical rods. This included two Gram-negative organisms, E. coli ATCC 25922 and P. aeruginosa ATCC 15442, and a series of six Gram-positive strains: S. aureus NCTC 4163; S. aureus ATCC 29213, 25923, and 6538; and S. epidermidis ATCC 12228 and 35984. […] The MIC was determined using the two-fold serial broth microdilution method in 96-well microtitration plates containing Mueller-Hinton II broth medium (Becton Dickinson, Franklin Lakes, NJ, USA). The final inoculum for all tested bacteria was adjusted to […] (colony-forming units per milliliter). The stock solution of the tested compounds was prepared in dimethyl sulfoxide (DMSO) and diluted to a maximum of 1% solvent content with a sterile medium.

[1] = tested on: S. epidermidis ATCC 35984; assay: MIC broth microdilution; type: cell-based; conditions: 19 h, 35 °C; for MIC: Staphylococcus epidermidis, ATCC35984, read-out: MIC S. epidermidis ATCC 35984
Excerpt: as §1

S. aureus NCTC 4163 = assay: MIC broth microdilution; type: cell-based; conditions: 19 h, 35 °C; for MIC: Staphylococcus aureus, NCTC4163, read-out: MIC S. aureus NCTC 4163
Excerpt: as §1

S. aureus ATCC 6538 = assay: MIC broth microdilution; type: cell-based; conditions: 19 h, 35 °C; for MIC: Staphylococcus aureus, ATCC6538, read-out: MIC S. aureus ATCC 6538
Excerpt: as §1

S. aureus ATCC 29213 = assay: MIC broth microdilution; type: cell-based; conditions: 19 h, 35 °C; for MIC: Staphylococcus aureus, ATCC29213, read-out: MIC S. aureus ATCC 29213
Excerpt: as §1

[2] = tested on: S. epidermidis ATCC 12228; assay: MIC broth microdilution; type: cell-based; conditions: 19 h, 35 °C; for MIC: Staphylococcus epidermidis, ATCC12228, read-out: MIC S. epidermidis ATCC 12228
Excerpt: as §1

P. aeruginosa ATCC 15442 = assay: MIC broth microdilution; type: cell-based; conditions: 19 h, 35 °C; for MIC: Pseudomonas aeruginosa, ATCC15442, read-out: MIC P. aeruginosa ATCC 15442
Excerpt: as §1

E. coli ATCC 25922 = assay: MIC broth microdilution; type: cell-based; conditions: 19 h, 35 °C; for MIC: Escherichia coli, ATCC25922, read-out: MIC E. coli ATCC 25922
Excerpt: as §1

PC3 (prostate cancer) = assay: MTT assay, PC3 cells; type: cell-based, human; conditions: for IC50: Homo sapiens, PC-3, MTT, 72 h, read-out: IC50 PC3; for SI PC3: SI = IC50 for normal cell line (HaCaT)/IC50 cancer cell line
Experimental: (§2) The human cell lines, such as A549 (lung cancer), MDA-MB-231 (breast cancer), MiaPaca-2 (pancreatic cancer), PC3 (metastatic prostate cancer), HCT-116 (colon carcinoma), and HaCaT (immortalized keratinocytes), were sourced from the American Type Culture Collection (ATCC) in Rockville, USA. Culturing conditions varied as follows: HCT116 cells were cultured in MEM (ThermoSci, Waltham, MA, USA), A549, MDA-MB-231, MiaPaca, HaCaT cells in DMEM High Glucose and PC3 cells were cultured in RPMI (Biowest SAS, Nuaillé, France). The growth medium consisted of 10% fetal bovine serum (FBS, Sigma-Aldrich, St. Louis, MO, USA), 20 mM HEPES (Biowest, Nuaillé, France), and antibiotics (100 U/mL of penicillin and 100 μg/mL of streptomycin) from Gibco, Grand Island, NY, USA. […] These compounds were added to 96-well plates containing study cells (1 × 10^4 cells per well) and incubated for 72 h. […] Cell absorbance results were incorporated into the formula for calculating the relative MTT level (%), enabling the assessment of cell viability following exposure to the test compounds. The cell viability percentage represents the MTT reduction in cells treated with the test compounds compared to the control sample, where only the medium was added to the cells.

[3] = tested on: HaCaT (immortalized human keratinocytes); assay: MTT assay, HaCaT normal cells; type: cell-based; conditions: MTT, 72 h, normal cells
Experimental: as §2

[4] = tested on: MDA-MB-231 (breast cancer); assay: MTT assay, MDA-MB-231 cells; type: cell-based, human; conditions: for IC50: MTT, 72 h, MDA-MB231, read-out: IC50 MDA; for SI MDA: SI = IC50 for normal cell line (HaCaT)/IC50 cancer cell line
Experimental: as §2

[5] = tested on: MiaPaCa-2 (pancreas cancer); assay: MTT assay, MiaPaCa-2 cells; type: cell-based, human; conditions: for IC50: Homo sapiens, MIA PaCa-2, MTT, 72 h, read-out: IC50 MiaPaCa-2; for SI MiaPaCa-2: SI = IC50 for normal cell line (HaCaT)/IC50 cancer cell line
Experimental: as §2

HCT116 (colon cancer) = assay: MTT assay, HCT116 cells; type: cell-based, human; conditions: for IC50: Homo sapiens, HCT-116, MTT, 72 h, read-out: IC50 HCT116; for SI HCT116: SI = IC50 for normal cell line (HaCaT)/IC50 cancer cell line
Experimental: as §2

A549 (lung cancer) = assay: MTT assay, A549 cells; type: cell-based, human; conditions: for IC50: MTT, 72 h, mean SD, read-out: IC50 A549; for SI A549: SI = IC50 for normal cell line (HaCaT)/IC50 cancer cell line
Experimental: as §2

[6] = Homo sapiens, HaCaT, read-out: IC50 HaCaT (Table 3)

Compound	MIC (S. aureus ATCC 25923) [µg/mL]	MIC [1] [µg/mL]	MIC (S. aureus NCTC 4163) [µg/mL]	MIC (S. aureus ATCC 6538) [µg/mL]	MIC (S. aureus ATCC 29213) [µg/mL]	MIC [2] [µg/mL]	MIC (P. aeruginosa ATCC 15442) [µg/mL]	MIC (E. coli ATCC 25922) [µg/mL]	IC50 [3, 6] [µM]	IC50 ([4]; Homo sapiens, MDA-MB-231) [µM]	SI MDA [4]	IC50 (A549 (lung cancer); Homo sapiens, A549) [µM]	SI A549 (A549 (lung cancer))	also measured
Clc1ccc2c(c1)N(CCN1CCCC1)c1nc3ccccc3cc1S2 [Compound 9, 8-Chloro-6-(2-(pyrrolidin-1-yl)ethyl)-quino[3,2-b]benzo[1,4]thiazine]	16 (≈ 41.9 µM)	16 (≈ 41.9 µM)	16 (≈ 41.9 µM)	16 (≈ 41.9 µM)	16 (≈ 41.9 µM)	16 (≈ 41.9 µM)	> 256	> 256	> 100	77.1 ± 1.6	1.3	17.4 ± 4.1	5.7	IC50 (PC3 (prostate cancer)): 77.1 ± 9.4 µM; SI PC3 (PC3 (prostate cancer)): 1.3; IC50 [5]: 57.4 ± 9.6 µM; SI MiaPaCa-2 [5]: 1.7; IC50 (HCT116 (colon cancer)): 17.5 ± 1.4 µM; SI HCT116 (HCT116 (colon cancer)): 5.7
8-Chloro-6-[(1-benzyl-1H-1,2,3-triazol-4-yl)-methyl]-quinobenzo[1,4]thiazine [Compound 29]											1.0		1.0	MIC S. aureus ATCC 25923 (S. aureus ATCC 25923): >256 µg/mL; MIC S. epidermidis ATCC 35984 [1]: >256 µg/mL; MIC S. aureus NCTC 4163 (S. aureus NCTC 4163): >256 µg/mL; MIC S. aureus ATCC 6538 (S. aureus ATCC 6538): >256 µg/mL; MIC S. aureus ATCC 29213 (S. aureus ATCC 29213): >256 µg/mL; MIC S. epidermidis ATCC 12228 [2]: >256 µg/mL; MIC P. aeruginosa ATCC 15442 (P. aeruginosa ATCC 15442): >256 µg/mL; MIC E. coli ATCC 25922 (E. coli ATCC 25922): >256 µg/mL; IC50 ([3]; read-out: IC50 HaCaT (Table 3)): > 100 µM; IC50 [4]: > 100 µM; IC50 (A549 (lung cancer)): > 100 µM
Clc1ccc2c(c1)N(Cc1cn(CSc3ccccc3)nn1)c1nc3ccccc3cc1S2 [Compound 33, 8-Chloro-6-((1-((phenylthio)methyl)-1H-1,2,3-triazol-4-yl)methyl)-quino[3,2-b]benzo[1,4]thiazine]	> 256	> 256	> 256	> 256	> 256	> 256	> 256	> 256	> 100	> 100	1.0	> 100	1.0	
C#CCN1c2cc(Cl)ccc2Sc2cc3ccccc3nc21 [Compound 26, 8-chloro-6-propynyquinobenzothiazine]	> 256	> 256	> 256	> 256	> 256	> 256	> 256	> 256	71.7 ± 5.7	95.8 ± 9.2	0.7	> 100	1.0	
CCOC(=O)NCCCN1c2cc(Cl)ccc2Sc2cc3ccccc3nc21 [Compound 18, Ethyl(3-(8-chloroquino[3,2-b]benzo[1,4]thiazin-6-yl)propyl)carbamate]	> 256	> 256	> 256	> 256	> 256	> 256	> 256	> 256	> 100	> 100	1.0	86.6 ± 0.8	1.1	
CS(=O)(=O)NCCCN1c2cc(Cl)ccc2Sc2cc3ccccc3nc21 [Compound 22, N-(3-(8-Chloroquino[3,2-b]benzo[1,4]thiazin-6-yl)propyl)methanesulfonamide]	> 256	> 256	> 256	> 256	> 256	> 256	> 256	> 256	> 100	> 100	1.0	> 100	1.0	
CCOC(=O)NCCCCN1c2cc(Cl)ccc2Sc2cc3ccccc3nc21 [Compound 19, Ethyl(4-(8-chloroquino[3,2-b]benzo[1,4]thiazin-6-yl)butyl)carbamate]	> 256	> 256	> 256	> 256	> 256	> 256	> 256	> 256	> 100	> 100	1.0	> 100	1.0	
Clc1ccc2c(c1)N(Cc1cn(-c3ccccc3)nn1)c1nc3ccccc3cc1S2 [Compound 27, 8-Chloro-6-((1-phenyl-1H-1,2,3-triazol-4-yl)methyl)-quino[3,2-b]benzo[1,4]thiazine]	> 256	> 256	> 256	> 256	> 256	> 256	> 256	> 256	70.2 ± 10.4	> 100	0.7	27.5 ± 6.2	2.5	IC50 (PC3 (prostate cancer)): > 100 µM; SI PC3 (PC3 (prostate cancer)): 1.0; IC50 ([3]; Homo sapiens, HaCaT, read-out: IC50 HaCaT (Table 4)): 71.7 ± 7.5 µM; IC50 [5]: 37.4 ± 5.6 µM; SI MiaPaCa-2 [5]: 1.9; IC50 (HCT116 (colon cancer)): 49.6 ± 4.7 µM; SI HCT116 (HCT116 (colon cancer)): 1.4
N#Cc1ccc(Cn2cc(CN3c4cc(Cl)ccc4Sc4cc5ccccc5nc43)nn2)cc1 [Compound 32, 4-((4-((8-Chloroquino[3,2-b]benzo[1,4]thiazin-6-yl)methyl)-1H-1,2,3-triazol-1-yl)methyl)benzonitrile]	> 256	> 256	> 256	> 256	> 256	> 256	> 256	> 256	> 100	> 100	1.0	> 100	1.0	
8-Chloro-6-[(1-(4-chlorobenzyl)-1H-1,2,3-triazol-4-yl)methyl]-quinobenzo[1,4]thiazine [Compound 31]											1.0		1.0	MIC S. aureus ATCC 25923 (S. aureus ATCC 25923): >256 µg/mL; MIC S. epidermidis ATCC 35984 [1]: >256 µg/mL; MIC S. aureus NCTC 4163 (S. aureus NCTC 4163): >256 µg/mL; MIC S. aureus ATCC 6538 (S. aureus ATCC 6538): >256 µg/mL; MIC S. aureus ATCC 29213 (S. aureus ATCC 29213): >256 µg/mL; MIC S. epidermidis ATCC 12228 [2]: >256 µg/mL; MIC P. aeruginosa ATCC 15442 (P. aeruginosa ATCC 15442): >256 µg/mL; MIC E. coli ATCC 25922 (E. coli ATCC 25922): >256 µg/mL; IC50 ([3]; read-out: IC50 HaCaT (Table 3)): > 100 µM; IC50 [4]: > 100 µM; IC50 (A549 (lung cancer)): > 100 µM
